Some test systems named below: 786-0 renal; EKVX NSCLC; KM12 colon; M14 melanoma; NCI-H226 lung; NCI-H522 lung; OVCAR-5 ovarian; PC-3 prostate; SN12C renal; HL-60(TB) leukemia.
Common to all, as to test: growth of human tumour cells (NCI), 48 h

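Where inhibition never reached the appropriate level, the endpoint shown equals the highest concentration tested. Otherwise, values were interpolated linearly from a five-concentration, 48-hour dose response in 96-well plates. Abbreviation: GI50, concentration required for 50% inhibition of growth. At the TGI there is no net growth.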 Bounds are passed on as bounds.

Among the data in PubChem BioAssay (NCI) are GI50 and TGI values, retold here.

Regarding `Cc1nc(Nc2cccnc2)sc1C(=O)/C=C/c1ccc(Cl)cc1`, the GI50 with 786-0 renal is 1.95 µM; in the assay with EKVX NSCLC, 6.99 µM; in the assay with KM12 colon, 1.98 µM; with M14 melanoma, 3.13 µM; with NCI-H226 lung it was 2.75 µM; in the assay on NCI-H522 lung it was 2.14 µM. The GI50 in the assay with OVCAR-5 ovarian is 2.87 µM; in the assay with PC-3 prostate it was 3.27 µM; with SN12C renal, 2.91 µM. Moreover, the TGI was 6.48 µM in the assay on 786-0 renal; more than 100 µM in the assay with EKVX NSCLC; 4.19 µM in the assay on KM12 colon; 19.5 µM with M14 melanoma; 8.12 µM with NCI-H226 lung; 5.33 µM with NCI-H522 lung. For the same compound, the TGI in the assay on OVCAR-5 ovarian came out at 31.2 µM; with PC-3 prostate, 12 µM; in the assay on SN12C renal, 9.13 µM.

Regarding `O=c1[nH]c2nc(NC3CCOCC3)ncc2cc1Oc1ccc(F)cc1F`, the GI50 with 786-0 renal, with HL-60(TB) leukemia, in the assay with KM12 colon, in the assay on M14 melanoma, in the assay with NCI-H226 lung and in the assay on NCI-H522 lung was more than 25 µM each time. The GI50 in the assay with OVCAR-5 ovarian, in the assay on PC-3 prostate and in the assay on SN12C renal was more than 25 µM in each case. The TGI in the assay with 786-0 renal, with HL-60(TB) leukemia, in the assay on KM12 colon, in the assay on M14 melanoma, with NCI-H226 lung and in the assay with NCI-H522 lung was more than 25 µM throughout. The TGI in the assay on OVCAR-5 ovarian, with PC-3 prostate and in the assay on SN12C renal was more than 25 µM throughout.

Regarding `O=C(Nc1ccc(-c2nc(-c3cccc(OCCN4CCOCC4)c3)c(-c3ccnc(Br)c3)[nH]2)cc1)c1ccccc1`, the GI50 with 786-0 renal was 0.741 µM; with EKVX NSCLC, 2.01 µM; in the assay on M14 melanoma, 1.8 µM; with NCI-H226 lung it was 2.94 µM; in the assay with NCI-H522 lung, 3.69 µM; with OVCAR-5 ovarian, 3.73 µM. The GI50 is 2.36 µM with PC-3 prostate and 6.94 µM in the assay on SN12C renal. Besides, the TGI is 2.39 µM in the assay on 786-0 renal; 6.97 µM in the assay with EKVX NSCLC; 4.36 µM in the assay with M14 melanoma; more than 100 µM in the assay with NCI-H226 lung; more than 100 µM in the assay with NCI-H522 lung; more than 100 µM in the assay with OVCAR-5 ovarian. The TGI in the assay with PC-3 prostate and in the assay on SN12C renal was more than 100 µM in each case.

Take `c1ccc(-c2nc(N3CCOCC3)c3c4c(sc3n2)CCCCCC4)nc1`: the GI50 was 11.7 µM with 786-0 renal; 4.49 µM with HL-60(TB) leukemia; 4.28 µM with KM12 colon; 4.17 µM in the assay on M14 melanoma; 5 µM in the assay on NCI-H226 lung; 5.85 µM with NCI-H522 lung. The GI50 in the assay on OVCAR-5 ovarian is 10.3 µM; in the assay with PC-3 prostate it was 2.69 µM; in the assay on SN12C renal it was 5 µM. Also, the TGI is 32.8 µM in the assay with 786-0 renal; 22.8 µM in the assay with HL-60(TB) leukemia; 16.1 µM in the assay on KM12 colon; 16.5 µM with M14 melanoma; 24 µM with NCI-H226 lung; 20.2 µM in the assay with NCI-H522 lung. For the same compound, the figures for the TGI in the assay with OVCAR-5 ovarian, in the assay on PC-3 prostate and with SN12C renal were 26.5 µM, 11.8 µM and 29.4 µM, respectively.

For `Cc1nn2c(/C=C3/C(=O)Nc4cc(Cl)ccc43)c(-c3ccccc3)nc2s1`, the GI50 in the assay on 786-0 renal was 2.15 µM; in the assay with HL-60(TB) leukemia it was more than 100 µM; with KM12 colon, 59.1 µM; in the assay with M14 melanoma, 6.54 µM; in the assay with NCI-H226 lung, 4.56 µM; in the assay with NCI-H522 lung, 1.8 µM. For the same compound, the GI50 with OVCAR-5 ovarian was more than 100 µM; with PC-3 prostate it was 13.8 µM; in the assay on SN12C renal, 2.84 µM. Moreover, the TGI in the assay on 786-0 renal is 4.37 µM; with HL-60(TB) leukemia it was more than 100 µM; in the assay with KM12 colon, more than 100 µM; in the assay with M14 melanoma, more than 100 µM; in the assay with NCI-H226 lung, 63.7 µM; in the assay on NCI-H522 lung, 4.11 µM. The TGI in the assay on OVCAR-5 ovarian was more than 100 µM; in the assay with PC-3 prostate it was more than 100 µM; with SN12C renal, 11.1 µM.

Turning to `COc1cc2c(cc1OCCCCCCN1CCN(CC(=O)Nc3ccc(Cl)cc3C(=O)c3ccccc3Cl)CC1)N=CC1CCCN1C2=O` (stereo not drawn), the GI50 was 0.339 µM in the assay on 786-0 renal; 0.477 µM in the assay with EKVX NSCLC; 0.244 µM in the assay on HL-60(TB) leukemia; 0.575 µM in the assay with NCI-H226 lung; 0.143 µM in the assay with NCI-H522 lung; 0.567 µM in the assay with OVCAR-5 ovarian. For the same compound, the results for the GI50 in the assay on PC-3 prostate and with SN12C renal were 0.308 µM and 0.298 µM, respectively. For the same compound, the TGI came out at 0.823 µM in the assay on 786-0 renal; 1.14 µM with EKVX NSCLC; 1.45 µM in the assay with NCI-H226 lung; 0.322 µM with NCI-H522 lung; 1.34 µM with OVCAR-5 ovarian; 0.715 µM in the assay on PC-3 prostate. The TGI in the assay on SN12C renal was determined as 1.08 µM.

Regarding `COC(=O)C1=C(C(=O)OC)C2(C)C=CC1O2` (stereo not drawn), the TGI came out at 14.4 µM in the assay with 786-0 renal; 41.3 µM in the assay with EKVX NSCLC; 32.5 µM in the assay on M14 melanoma; 39.9 µM with NCI-H226 lung; 5.56 µM in the assay on NCI-H522 lung; 31.5 µM in the assay with OVCAR-5 ovarian. The TGI in the assay with PC-3 prostate is 37.6 µM; in the assay on SN12C renal it was 31.3 µM.

As for `OCc1ccc(-c2cscc2-c2ccc(CO)o2)o1`, the GI50 in the assay on 786-0 renal is more than 33.8 µM; in the assay on HL-60(TB) leukemia, more than 100 µM; in the assay with KM12 colon, 97.4 µM; with M14 melanoma, more than 100 µM; in the assay with NCI-H226 lung, 0.112 µM; in the assay on NCI-H522 lung it was more than 93.3 µM. The values for the GI50 in the assay on OVCAR-5 ovarian, in the assay on PC-3 prostate and with SN12C renal were 0.216 µM, more than 75 µM and more than 100 µM, respectively. For the same compound, the TGI in the assay on 786-0 renal is more than 100 µM; in the assay with HL-60(TB) leukemia it was more than 100 µM; with KM12 colon, more than 100 µM; in the assay with M14 melanoma it was more than 100 µM; in the assay on NCI-H226 lung, 0.485 µM; in the assay on NCI-H522 lung, more than 100 µM. The results for the TGI in the assay with OVCAR-5 ovarian, in the assay with PC-3 prostate and with SN12C renal were 1.97 µM, more than 100 µM and more than 100 µM, respectively.

Consider `Cc1ccc(N=Nc2c(O)ccc3ccccc23)cc1`, for which the TGI with 786-0 renal, in the assay on EKVX NSCLC, in the assay on KM12 colon, with M14 melanoma, in the assay with NCI-H226 lung and with NCI-H522 lung was more than 100 µM throughout. Further, the TGI in the assay with OVCAR-5 ovarian, in the assay on PC-3 prostate and in the assay on SN12C renal was more than 100 µM each time.
